Reference: ChEMBL document CHEMBL4007412, “Design, Synthesis, and Biological Evaluation of Mitochondria-Targeted Flavone-Naphthalimide-Polyamine Conjugates with Antimetastatic Activity” (J Med Chem, 2017)
Active and inactive are the calls of the source. No cut-off for these calls is given here.

What was measured:
HepG2 [1] = assay: Cytotoxicity against human HepG2 cells assessed as cell growth inhibition after 48 hrs by MTT assay; type: functional, cell-based; conditions: HepG2, 48 h
[2] = Cytotoxicity against human QSG7701 cells assessed as cell growth inhibition after 48 hrs by MTT assay; type: cell-based; conditions: QSG7701, 48 h
HepG2 [3] = assay: Inhibition of colony formation of human HepG2 cells up to 20 uM […] by crystal violet staining based colony formation assay; type: functional, cell-based
[4] = Cytotoxicity against human QSG7701 cells assessed as reduction in cell viability up to 20 uM after 24 to 72 hrs by MTT assay; type: cell-based
H22 [5] = assay: Antitumor activity against […] xenografted in Kunming mouse assessed as suppression of tumor weight at 3 mg/kg, iv dosed every day starting from day 8 after tumor cell inoculation; type: functional
Mus musculus [6] = assay: Toxicity in Kunming mouse xenografted with […] cells assessed as effect on liver weight index at 3 mg/kg, iv dosed every day starting from day 8 after tumor cell inoculation; type: organism-based; conditions: in vivo
Mus musculus [7] = assay: Toxicity in Kunming mouse xenografted with […] cells assessed as effect on spleen weight index at 3 mg/kg, iv dosed every day starting from day 8 after tumor cell inoculation; type: organism-based; conditions: in vivo
Mus musculus [8] = assay: Toxicity in Kunming mouse xenografted with […] cells assessed as effect on lung weight index at 3 mg/kg, iv dosed every day starting from day 8 after tumor cell inoculation; type: organism-based; conditions: in vivo
Mus musculus [9] = assay: Toxicity in Kunming mouse xenografted with […] cells assessed as effect on kidney weight index at 3 mg/kg, iv dosed every day starting from day 8 after tumor cell inoculation; type: organism-based; conditions: in vivo
[10] = Drug uptake in human SMMC7721 cells assessed as PAT-mediated cellular uptake after 8 hrs by HCS analysis; type: ADME, cell-based
[11] = Drug uptake in human HepG2 cells assessed as PAT-mediated cellular uptake at 10 uM by HCS analysis; type: ADME, cell-based; conditions: TDE = time-dependent effect
HepG2 [12] = assay: Cytotoxicity against human HepG2 cells assessed as effect on cell viability at 5 to 10 uM after 24 hrs in presence of spermidine by MTT assay; type: functional, cell-based
SMMC-7721 [13] = assay: Effect on ODC expression in human SMMC7721 cells at 5 to 20 uM after 24 hrs by Western blot analysis; type: functional, cell-based
SMMC-7721 [14] = assay: Effect on spermine levels in human SMMC7721 cells at 20 uM after 24 hrs by HPLC analysis; type: functional, cell-based
[15] = Drug localization in human HepG2 cell membranes at 10 uM after 8 hrs by DiO-staining based microscopic analysis; type: ADME
[16] = Drug localization in human HepG2 cell lysosomes at 10 uM after 8 hrs by Lyso tracker-staining based confocal microscopic analysis; type: ADME, Lysosome
[17] = Drug localization in human HepG2 cell endoplasmic reticulum at 10 uM after 8 hrs by ER tracker-staining based confocal microscopic analysis; type: ADME
[18] = Drug localization in mitochondria of human HepG2 cells at 10 uM after 8 hrs by UV-bright field microscopic analysis; type: ADME
HepG2 [19] = assay: Disruption of mitochondrial membrane potential in human HepG2 cells at 20 uM after 24 hrs by JC-1 staining based flow cytometry; type: functional, cell-based
HepG2 [20] = assay: Induction of apoptosis in human HepG2 cells assessed as increase in apoptotic cells up to 20 uM after 24 hrs by AO/EB double staining based flow cytometric analysis; type: functional, cell-based
HepG2 [21] = assay: Induction of apoptosis in human HepG2 cells assessed as early apoptotic cells at 20 uM after 24 hrs by Annexin V-FITC/propidium iodide staining based flow cytometric analysis (reference value: 2.09 %); type: functional
HepG2 [22] = assay: Induction of apoptosis in human HepG2 cells assessed as late apoptotic cells at 20 uM after 24 hrs by Annexin V-FITC/propidium iodide staining based flow cytometric analysis (reference value: 8.96 %); type: functional
HepG2 [23] = assay: Induction of apoptosis in human HepG2 cells assessed as up-regulation of caspase 3 expression up to 20 uM after 24 hrs by Western blot analysis; type: functional, cell-based
[24] = Induction of apoptosis in human QSG7701 cells assessed as up-regulation of caspase 3 expression up to 20 uM after 24 hrs by Western blot analysis; type: cell-based; conditions: qsg7701, 24 h
HepG2 [25] = assay: Induction of ROS generation in human HepG2 cells at 20 uM after 24 hrs in presence of NAC by DCFH-DA-staining based HCS analysis; type: functional, cell-based
HepG2 [26] = assay: Induction of ROS generation in human HepG2 cells at 20 uM after 24 hrs in presence of TOC by DCFH-DA-staining based HCS analysis; type: functional, cell-based
HepG2 [27] = assay: Antiproliferative activity against human HepG2 cells assessed as reduction in cell viability at 20 uM pre-treated with CAT after 48 hrs by MTT assay; type: functional, cell-based
HepG2 [28] = assay: Induction of cleaved PARP expression in human HepG2 cells up to 20 uM pre-treated with NAC measured after 24 hrs by Western blot analysis; type: functional, cell-based
HepG2 [29] = assay: Inhibition of cell migration in human HepG2 cells pretreated with NAC measured after 24 hrs by transwell assay; type: functional, cell-based
H22 [30] = assay: Antimetastatic activity against […] xenografted in pulmonary metastasis Kunming mouse model assessed as reduction in tumor metastatic nodules at 3 mg/kg, iv dosed every day starting from day 8 after tumor cell inoculation by H/E staining based leica microscopic analysis; type: functional, organism-based
HepG2 [31] = assay: Induction of superoxide production in human HepG2 cells at 20 uM after 24 hrs by microplate reader based assay; type: functional, cell-based
HepG2 [32] = assay: Induction of p53 expression in human HepG2 cells up to 20 uM after 24 hrs by immunofluoresence assay relative to control; type: functional, cell-based

With `Cl.Cl.NCCCCNCCCCN1C(=O)c2cccc3c(-c4cc(=O)c5ccccc5o4)ccc(c23)C1=O` the IC50 (HepG2 [1]) was 10.3 µM, the IC50 [2] was greater than 50 µM and the Activity (HepG2 [3]) was “Active”. The Activity [4] was “Non-Toxic”, the Activity (H22 [5]) was 60.4% and the Activity (Mus musculus [6]) was “Non-Toxic”. For the same compound, the Activity (Mus musculus [7]) was “Non-Toxic”, the Activity (Mus musculus [8]) was “Non-Toxic” and the Activity (Mus musculus [9]) was “Non-Toxic”. For the same compound, the Drug uptake [10] was “Dose-dependent effect”, the Drug uptake [11] was “Tde” and the Activity (HepG2 [12]) was “inactive”. For the same compound, the Activity (SMMC-7721 [13]) was “inactive”, the Activity (SMMC-7721 [14]) was “inactive” and the Drug uptake [15] was “Not Active”. For the same compound, the Drug uptake [16] was “Not Active”, the Drug uptake [17] was “Not Active” and the Drug uptake [18] was “Active”. The Activity (HepG2 [19]) was “Active”, the Activity (HepG2 [20]) was “Dose-dependent effect” and the Activity (HepG2 [21]) was 26.6%. The Activity (HepG2 [22]) was 26.6%, the Activity (HepG2 [23]) was “Active” and the Activity [24] was “Non-Toxic”. The Activity (HepG2 [25]) was “inactive”, the Activity (HepG2 [26]) was “inactive” and the Activity (HepG2 [27]) was “inactive”. For the same compound, the Activity (HepG2 [28]) was “inactive”, the inhibition (HepG2 [29]) was “inactive” and the Activity (H22 [30]) was “Active”. The Activity (HepG2 [31]) was “Active” and the Activity (HepG2 [32]) was “Dose-dependent effect”.
